Test results reported in patent US6015820A, “4-Aryl-thio-pyridin-2(1H)-ones, medicines containing them and their uses in the treatment of illnesses linked to HIV” (priority 1995, dated 2000).
Read-outs that look alike come from different tables or passages of the source.

Key:
[1] = system: HIV-1 LAI; test: anti-HIV-1 activity: replication of HIV-1 LAI on CEM-SS cells; type: cell-based
How it was run: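 CEM-SS cells were infected with 100 TCID50 virus for 30 min, washed, then cultured 5 days with test compound at varied concentrations. Virus production was measured as reverse transcriptase activity in culture supernatant, and IC50 was derived by median-effect dose-effect analysis.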

[2] = system: HIV-1 resistant to Nevirapine (N119); test: microbe, parasite or virus in culture; type: cell-based; details: for IC50: Human immunodeficiency virus 1, CEM-SS
Procedure: The effects of the compounds were evaluated on the replication of HIV-1 (see Table 2) on CEM-SS cells (cell lines of the lymphocytic lineage) strongly infected with HIV-1 LAI as described by Moog et al. (Antiviral Research (1994), 24, 275-288). The CEM-SS and the HIV-1 resistant to Nevirapine (N119) carrying a point mutation at codon 181 of the IT, were supplied respectively by P. NARA and D. RICHMAN through the intermediary of the AIDS Research and Reference Reagent Program, Division of AIDS, NIAID, NIH (USA) (Catalogue references : No. 776 and No. 1392).
(§1) The virus production was measured by quantifying the activity of the inverse transcriptase associated with viral particles released into the culture supernatant. In short, cells were infected with 100 TCID50 for 30 minutes; after adsorption of the virus, unbound particles were removed by two washings and the cells were cultivated in the presence of different concentrations of the compounds tested for 5 days before determining the viral production. The concentration inhibiting 50% of the viral multiplication (IC50) came from the computer plot of the median effect of the dose effect results (Chou et al. Elsevier Science Publishers, Cambridge U.K. (1985), 19-28).

[3] = system: HIV-1 4200 type E (primary isolate); test: anti-HIV-1 activity, HIV-1 4200 type E (primary isolate)/PBMC; type: cell-based; details: Human immunodeficiency virus 1, Table 4
Procedure: as §1
(§2) Thirty two compounds according to the invention were studied for their anti-HIV-1 biological activity. […] This compound was then tested with other colonies and other cell lines (Table 4).

[4] = system: HIV-1 6 type D (primary isolate); test: anti-HIV-1 activity, HIV-1 6 type D (primary isolate)/PBMC; type: cell-based; details: Human immunodeficiency virus 1, Table 4
Procedure: as §1, §2

[5] = target: IT of HIV-2 (Human immunodeficiency virus type 2 (ISOLATE ROD), UniProt P04584); test: inhibition of the inverse transcriptase of HIV-2; type: biochemical; details: at concentrations at which the IT of HIV-1 was well inhibited (FIG. 9)
Procedure: The system for the expression of the IT of HIV-2 in E.coli (B. Muller et al. (1991 J. Biol. Chem. 266, 14708-14713) was provided by Dr. R. Goody. The IT of the HIV-2 was purified in the same way as the IT of the HIV-1.
Incubation was carried out at 37° C. for 10 minutes in the presence of various matrix-primers.
a) Poly C-oligo dG: the reaction mixture contained a final volume of 0.05 ml, Tris-HCl 50 mM pH 8.0, MgCl2 5 mM, dithiothreitol 4 mM, 0.48 A260 /ml of poly C-oligo dG (5:1), 1.0 μCi of [^3 H]dGTP (28 Ci/mmole), dGTP 2 μM, KCl 80 mM, 1 μg of bovine serum albumin and IT 20-50 nM.
b) Poly A-oligo dT: the same conditions as in a), except that 0.48 A260 /ml of poly A-oligo dT (5:1), 0.5 μCi of [^3 H]dTTP (46 Ci/mmole), dTTP 20 μM were used.
The reactions were stopped by adding in the cold 1 ml of 10% trichloroacetic acid plus sodium pyrophosphate 0.1 M. The precipitates were filtered through nitrocellulose membranes, washed with 2% trichloroacetic acid, dried and counted in a PPO/POPOP/toluene scintillation mixture.
All the compounds were dissolved in dimethyl#sulphoxide (DMSO). The test samples were prepared in the presence of the same final concentration of DMSO. IC50 is the concentration required to inhibit the activity of the IT of the recombinant HIV-1 by 50%.

IT of HIV-2, sequence (P04584 613-1171): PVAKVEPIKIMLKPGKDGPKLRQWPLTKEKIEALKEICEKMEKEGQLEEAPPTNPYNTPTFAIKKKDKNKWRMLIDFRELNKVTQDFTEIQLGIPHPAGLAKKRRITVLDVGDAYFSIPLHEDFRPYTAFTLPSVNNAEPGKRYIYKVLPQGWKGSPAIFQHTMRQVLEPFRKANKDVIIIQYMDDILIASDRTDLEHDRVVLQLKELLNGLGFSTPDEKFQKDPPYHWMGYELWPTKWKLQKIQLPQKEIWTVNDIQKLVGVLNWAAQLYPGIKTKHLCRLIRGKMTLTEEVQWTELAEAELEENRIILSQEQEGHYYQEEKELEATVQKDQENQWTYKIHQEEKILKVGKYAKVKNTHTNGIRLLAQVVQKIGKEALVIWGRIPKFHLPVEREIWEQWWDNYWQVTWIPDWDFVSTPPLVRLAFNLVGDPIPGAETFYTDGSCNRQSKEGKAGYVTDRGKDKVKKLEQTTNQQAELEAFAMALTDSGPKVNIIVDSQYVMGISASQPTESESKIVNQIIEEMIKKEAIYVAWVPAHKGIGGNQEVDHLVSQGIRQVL

Q: With CCc1c(C)[nH]c(=O)c([N+](=O)[O-])c1Sc1cc(C)cc(C)c1 [Compound 7c, 5-ethyl-6-methyl-3-nitro-4-(3', 5'-dimethylphenyl)thio-pyridin-2(1H)-one] as the compound, how does the IC50 ([1]; Human immunodeficiency virus 1, 120 h, Table 2, HIV-1 LAI, CEM-SS cells, 5 days, read-out: IC50, anti-HIV-1 activity) read?
A: The IC50 was 6 nM.

Q: And the IC50 ([1]; Human immunodeficiency virus 1, CEM-SS, Table 4, HIV-1 (LA1)/CEMSS, read-out: IC50)?
A: The IC50 was less than 0.4 nM.

Q: What about the “SI (selectivity index)” value ([1]; Table 2, HIV-1 LAI, CEM-SS cells) of the same compound?
A: Its value is greater than 1666.

Q: And the IC50 [2]?
A: Its IC50 is 23 nM.

Q: And the IC50 ([2]; read-out: IC50, strain resistant to Nevirapine)?
A: Its IC50 is 260 nM.

Q: What about the “SI (selectivity index)” value ([2]; Table 3, strain resistant to Nevirapine) of the same compound?
A: Its value is greater than 38.

Q: And the IC50 [3]?
A: Its IC50 is less than 0.1 nM.

Q: What about the IC50 [4] of the same compound?
A: The IC50 was less than 0.1 nM.

Q: And the “effect on activity of the IT of HIV-2” value [5]?
A: Its value is “not affected”.
